For six molecules, GI50 and TGI results are on record in PubChem BioAssay (NCI).

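These data come from cells grown in 96-well plates and exposed to compound for 48 hours at five concentrations. The concentration for 50% growth inhibition is given as GI50. TGI: total growth inhibition.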

Among the test systems are PC-3 prostate; HS 578T breast; HCC-2998 colon; SNB-75 CNS; U251 CNS; HT29 colon; TK-10 renal; MDA-MB-231 breast; SK-MEL-5 melanoma; SF-268 CNS.
Holding throughout (test): NCI anticancer screen, dose series, 48 h

Turning to `Nc1ccccc1NC(=O)c1ccc(CNc2nccc(-c3cccnc3)n2)cc1`, the GI50 was 928 nM with PC-3 prostate; 1060 nM with HS 578T breast; 785 nM with HCC-2998 colon; 1430 nM in the assay with SNB-75 CNS; 1120 nM with U251 CNS; 364 nM with HT29 colon. Besides, the GI50 was 304 nM with TK-10 renal, 2440 nM with MDA-MB-231 breast, 381 nM in the assay with SK-MEL-5 melanoma and 995 nM with SF-268 CNS. Further, the TGI with PC-3 prostate is above 100000 nM; with HS 578T breast, above 100000 nM; in the assay with HCC-2998 colon, 2590 nM; in the assay with SNB-75 CNS, above 25400 nM; in the assay on HT29 colon, 6280 nM; with TK-10 renal, above 27200 nM. The TGI with MDA-MB-231 breast was above 100000 nM; in the assay with SK-MEL-5 melanoma, 1150 nM; in the assay with SF-268 CNS, above 21400 nM.

On to `CCOC(=O)[C@@H](C)C[C@H](Cc1ccccc1)NC(=O)c1nc([C@@H](C[C@H](C(C)C)N(C)C(=O)[C@@H](NC(=O)[C@H]2CCCCN2C)C(C)C)OC(C)=O)sc1CCOCc1ccccc1`, for which the GI50 in the assay with PC-3 prostate is 52.1 nM; in the assay with HS 578T breast, 83 nM; with HCC-2998 colon, 119 nM; in the assay on SNB-75 CNS, 43.3 nM; in the assay with U251 CNS it was 71.6 nM; in the assay with HT29 colon, 37.5 nM. The GI50 with TK-10 renal is 631 nM; with MDA-MB-231 breast, 175 nM; in the assay with SK-MEL-5 melanoma, 50 nM; in the assay on SF-268 CNS it was 158 nM. Further, the TGI in the assay with PC-3 prostate worked out at 2410 nM; with HS 578T breast, 2850 nM; with HCC-2998 colon, 1130 nM; in the assay on SNB-75 CNS it was 2760 nM; in the assay with U251 CNS, 1620 nM; with HT29 colon, 1400 nM. Also, the TGI in the assay on TK-10 renal turned out to be 5280 nM; in the assay on MDA-MB-231 breast, 1020 nM; with SK-MEL-5 melanoma, 380 nM; in the assay with SF-268 CNS it was 2300 nM.

Take `O=C1CC[C@H](N2C(=O)c3cccc4c(Cc5ccc(CN6CCOCC6)cc5)ccc2c34)C(=O)N1`: the GI50 is 40400 nM in the assay on PC-3 prostate; 46800 nM with HS 578T breast; above 100000 nM in the assay with HCC-2998 colon; 2560 nM in the assay with SNB-75 CNS; 60300 nM in the assay with U251 CNS; 28900 nM in the assay with HT29 colon. Also, the GI50 in the assay on TK-10 renal is above 100000 nM; in the assay on MDA-MB-231 breast, 79500 nM; with SK-MEL-5 melanoma it was 7320 nM; with SF-268 CNS it was above 100000 nM. Further, the TGI with PC-3 prostate, in the assay on HS 578T breast, in the assay with HCC-2998 colon, in the assay on SNB-75 CNS, with U251 CNS and with HT29 colon was above 100000 nM in each case. Further, the TGI was above 100000 nM in the assay with TK-10 renal, above 100000 nM in the assay on MDA-MB-231 breast, 26400 nM in the assay on SK-MEL-5 melanoma and above 100000 nM in the assay with SF-268 CNS.

Take `COc1cccc(CCC2CCCN(c3cc(C)nc(N)n3)C2)c1` (centres undefined): the GI50 in the assay with PC-3 prostate is 379 nM; in the assay on HS 578T breast, 418 nM; in the assay with HCC-2998 colon, 1540 nM; with SNB-75 CNS, 194 nM; with U251 CNS it was 413 nM; in the assay on HT29 colon, 280 nM. In addition, the GI50 in the assay with TK-10 renal was 794 nM; with MDA-MB-231 breast, 1200 nM; in the assay with SK-MEL-5 melanoma it was 333 nM; with SF-268 CNS, 643 nM. The TGI was found to be 14100 nM with PC-3 prostate; 16700 nM with HS 578T breast; 7520 nM with HCC-2998 colon; 3460 nM in the assay on SNB-75 CNS; 11400 nM with U251 CNS; 1490 nM in the assay with HT29 colon. The TGI with TK-10 renal worked out at 14800 nM; in the assay with MDA-MB-231 breast, 11500 nM; with SK-MEL-5 melanoma it was 1320 nM; in the assay with SF-268 CNS, 12500 nM.

In the case of `Cn1cc(C2=C(c3ccccc3[N+](=O)[O-])C(=O)NC2=O)c2ccccc21`, the GI50 is 1650 nM with PC-3 prostate; 975 nM in the assay on HS 578T breast; 7790 nM in the assay with HCC-2998 colon; 70.5 nM in the assay on SNB-75 CNS; 1770 nM in the assay on U251 CNS; 1810 nM in the assay with HT29 colon. Further, the GI50 is 5580 nM with TK-10 renal, 4720 nM with MDA-MB-231 breast, 2860 nM in the assay with SK-MEL-5 melanoma and 5640 nM in the assay on SF-268 CNS. Moreover, the TGI with PC-3 prostate was 11600 nM; in the assay with HS 578T breast it was above 16900 nM; in the assay on HCC-2998 colon it was above 23700 nM; in the assay with SNB-75 CNS it was 2390 nM; in the assay with U251 CNS it was above 25000 nM; in the assay with HT29 colon, 12400 nM. For the same molecule, the TGI stood at 18600 nM in the assay with TK-10 renal, 19600 nM with MDA-MB-231 breast, 8060 nM in the assay on SK-MEL-5 melanoma and 18000 nM in the assay on SF-268 CNS.

Take `NC1=CC(=O)c2cccnc2C1=O`: the GI50 was 2220 nM in the assay with PC-3 prostate; 2280 nM in the assay with HS 578T breast; 5820 nM in the assay with HCC-2998 colon; 1210 nM in the assay with SNB-75 CNS; 1460 nM in the assay with U251 CNS; 3480 nM in the assay with HT29 colon. The GI50 in the assay on TK-10 renal was 15600 nM; in the assay on MDA-MB-231 breast, 1900 nM; in the assay with SK-MEL-5 melanoma it was 1580 nM; in the assay on SF-268 CNS, 1480 nM. Besides, the TGI was 7550 nM in the assay with PC-3 prostate; 8170 nM in the assay on HS 578T breast; 19800 nM in the assay on HCC-2998 colon; 2580 nM in the assay with SNB-75 CNS; 2830 nM with U251 CNS; 14600 nM in the assay on HT29 colon. The TGI in the assay on TK-10 renal is 29200 nM; in the assay on MDA-MB-231 breast, 4780 nM; in the assay on SK-MEL-5 melanoma it was 2950 nM; in the assay on SF-268 CNS, 3780 nM.
